Laboratory results: US8815872B2, “Macrocyclics pyrimidines as aurora kinase inhibitors” (Merck Patent GmbH, priority 2008, dated 2014)
Several values for one entry are separate records, joined by “and”; a condition that tells them apart may be missing. Equal values may be shown once.

Legend:
Type in all cases: biochemical
[1] = biological target: T1, IRR (Homo sapiens, UniProt P14616); test: Other kinases, inhibition at 1 μM (Table 3)
T1 construct: purchased Caliper Life Sciences
Description: (§1) The Aurora and other kinase assays described here were performed on two Caliper Life Sciences systems, the LC3000 and the Desktop Profiler. These provide data on enzyme activity via measurement of the relative amounts of phosphorylated or unphosphorylated fluorescently labelled substrate peptide at the end of an enzymatic reaction. These different states of peptide are resolved by applying a potential difference across the sample. The presence of a charged phosphate group on the product (as opposed to the substrate) causes a different peptide mobility between the two peptides. This is visualized by excitation of a fluorescent label on the substrate and product peptides and represented as peaks within the analysis software.
(§2) The Desktop Profiler utilizes the same principal as the LC 3000 for calculating percentage conversion of a substrate to product. Caliper Life Sciences provided proprietary flash frozen pre-made 384 well plates containing selected kinases. Each column in the 384 well plate contained a particular selected kinase. A second plate, the ‘substrate plate’ contained a mix of fluorescently labeled peptide substrate and ATP. These were arranged in columns so that transfer for substrate plate to enzyme plate provided the correct enzyme with the correct substrate/ATP concentration.
(§3) Compounds were added to a thawed enzyme plate in the desired format, in single concentrations. Reactions were initiated by transfer of the ubstrate/ATP mix from the substrate plate. The enzyme plate was incubated for 90 mins at 25 °C. The reaction was stopped by addition of […] of Stop Buffer (100 mM HEPES pH 7.5, 0.015% Brij-35, 10 mM EDTA (Sigma, E7889)).
(§4) Plates were read in a manner identical to that of the LC3000, and the ratio between substrate and product peaks provided the activity of the enzyme in that well. This was best represented by a plate heat map which colors each well by percent inhibition as compared to positive and negative controls (no inhibitors and no ATP respectively).

[2] = biological target: T2, S6K1 (Homo sapiens, UniProt P23443); test: Other kinases, inhibition at 1 μM (Table 3)
T2 construct: purchased Caliper Life Sciences
Description: as §1, §2, §3, §4

[3] = biological target: T3, TBK1 (Homo sapiens, UniProt Q9UHD2); test: Other kinases, inhibition at 1 μM (Table 3)
T3 construct: purchased Caliper Life Sciences
T3 sequence (Q9UHD2 whole entry, species assumed): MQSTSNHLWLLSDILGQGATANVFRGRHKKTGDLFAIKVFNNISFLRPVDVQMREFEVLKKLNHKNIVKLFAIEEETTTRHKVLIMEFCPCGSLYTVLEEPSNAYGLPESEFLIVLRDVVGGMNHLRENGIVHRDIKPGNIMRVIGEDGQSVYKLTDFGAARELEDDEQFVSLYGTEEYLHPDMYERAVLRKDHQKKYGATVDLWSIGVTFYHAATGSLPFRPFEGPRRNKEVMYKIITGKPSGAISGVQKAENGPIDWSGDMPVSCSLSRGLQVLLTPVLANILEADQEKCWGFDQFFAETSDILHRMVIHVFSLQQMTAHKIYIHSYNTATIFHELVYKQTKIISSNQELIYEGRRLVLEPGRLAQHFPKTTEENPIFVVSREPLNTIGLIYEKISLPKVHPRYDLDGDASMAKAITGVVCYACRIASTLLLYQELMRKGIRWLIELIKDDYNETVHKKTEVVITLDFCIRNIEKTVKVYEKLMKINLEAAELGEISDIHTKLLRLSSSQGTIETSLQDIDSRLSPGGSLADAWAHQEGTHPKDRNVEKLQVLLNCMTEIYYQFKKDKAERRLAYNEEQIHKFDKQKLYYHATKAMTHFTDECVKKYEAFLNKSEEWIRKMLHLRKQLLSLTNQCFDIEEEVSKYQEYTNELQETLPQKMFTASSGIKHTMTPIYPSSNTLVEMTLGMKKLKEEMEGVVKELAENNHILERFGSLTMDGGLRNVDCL
Description: as §1, §2, §3, §4

[4] = biological target: T4, PKD2 (Homo sapiens, UniProt Q9BZL6); test: Other kinases, inhibition at 1 μM (Table 3)
T4 construct: purchased Caliper Life Sciences
Description: as §1, §2, §3, §4

[5] = biological target: T5, PBK (Homo sapiens, UniProt Q96KB5); test: Other kinases, inhibition at 1 μM (Table 3)
T5 construct: purchased Caliper Life Sciences
Description: as §1, §2, §3, §4

[6] = biological target: T6, CK1-delta (Homo sapiens, UniProt P48730); test: Other kinases, inhibition at 1 μM (Table 3)
T6 construct: purchased Caliper Life Sciences
T6 sequence (P48730 whole entry): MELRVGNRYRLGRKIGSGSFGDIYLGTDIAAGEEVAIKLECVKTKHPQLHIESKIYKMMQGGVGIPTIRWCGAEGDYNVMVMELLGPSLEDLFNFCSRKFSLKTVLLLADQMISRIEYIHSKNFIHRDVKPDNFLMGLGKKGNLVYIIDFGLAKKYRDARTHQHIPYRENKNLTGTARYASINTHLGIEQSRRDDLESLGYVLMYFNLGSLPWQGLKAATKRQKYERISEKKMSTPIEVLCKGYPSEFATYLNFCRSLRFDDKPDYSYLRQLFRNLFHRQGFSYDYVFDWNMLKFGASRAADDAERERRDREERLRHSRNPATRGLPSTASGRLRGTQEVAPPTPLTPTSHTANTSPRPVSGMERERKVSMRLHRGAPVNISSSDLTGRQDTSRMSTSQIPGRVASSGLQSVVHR
Description: as §1, §2, §3, §4

[7] = biological target: T7, Syk (Homo sapiens, UniProt P43405); test: Other kinases, inhibition at 1 μM (Table 3)
T7 construct: purchased Caliper Life Sciences
Description: as §1, §2, §3, §4

[8] = biological target: T8, CAMKKb (Homo sapiens, UniProt Q96RR4); test: Other kinases, inhibition at 1 μM (Table 3)
T8 construct: purchased Caliper Life Sciences
T8 sequence (Q96RR4 whole entry, species assumed): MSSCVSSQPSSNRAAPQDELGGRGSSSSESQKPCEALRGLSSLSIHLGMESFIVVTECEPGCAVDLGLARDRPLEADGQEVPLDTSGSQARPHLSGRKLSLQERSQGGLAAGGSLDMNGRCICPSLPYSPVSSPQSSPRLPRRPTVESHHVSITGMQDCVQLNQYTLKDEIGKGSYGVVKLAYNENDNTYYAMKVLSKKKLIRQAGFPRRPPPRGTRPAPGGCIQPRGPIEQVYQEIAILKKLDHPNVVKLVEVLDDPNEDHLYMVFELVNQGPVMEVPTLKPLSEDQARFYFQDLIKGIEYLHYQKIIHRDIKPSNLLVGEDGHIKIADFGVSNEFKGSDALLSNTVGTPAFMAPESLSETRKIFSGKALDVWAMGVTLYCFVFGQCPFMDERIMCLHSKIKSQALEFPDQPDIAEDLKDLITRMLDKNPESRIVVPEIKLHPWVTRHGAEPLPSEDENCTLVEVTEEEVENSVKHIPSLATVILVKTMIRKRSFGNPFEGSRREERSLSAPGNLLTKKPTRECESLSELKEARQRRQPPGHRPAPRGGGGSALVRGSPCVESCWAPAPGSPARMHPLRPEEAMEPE
Description: as §1, §2, §3, §4

[9] = biological target: T9, MAPKAP-K1-beta (Homo sapiens, UniProt P51812); test: Other kinases, inhibition at 1 μM (Table 3)
T9 construct: purchased Caliper Life Sciences
Description: as §1, §2, §3, §4

[10] = biological target: T10, MNK-1 (Homo sapiens, UniProt Q9BUB5); test: Other kinases, inhibition at 1 μM (Table 3)
T10 construct: purchased Caliper Life Sciences
Description: as §1, §2, §3, §4

[11] = biological target: T11, CHK2 (Homo sapiens, UniProt O96017); test: Other kinases, inhibition at 1 μM (Table 3)
T11 construct: purchased Caliper Life Sciences
T11 sequence (O96017 whole entry, species assumed): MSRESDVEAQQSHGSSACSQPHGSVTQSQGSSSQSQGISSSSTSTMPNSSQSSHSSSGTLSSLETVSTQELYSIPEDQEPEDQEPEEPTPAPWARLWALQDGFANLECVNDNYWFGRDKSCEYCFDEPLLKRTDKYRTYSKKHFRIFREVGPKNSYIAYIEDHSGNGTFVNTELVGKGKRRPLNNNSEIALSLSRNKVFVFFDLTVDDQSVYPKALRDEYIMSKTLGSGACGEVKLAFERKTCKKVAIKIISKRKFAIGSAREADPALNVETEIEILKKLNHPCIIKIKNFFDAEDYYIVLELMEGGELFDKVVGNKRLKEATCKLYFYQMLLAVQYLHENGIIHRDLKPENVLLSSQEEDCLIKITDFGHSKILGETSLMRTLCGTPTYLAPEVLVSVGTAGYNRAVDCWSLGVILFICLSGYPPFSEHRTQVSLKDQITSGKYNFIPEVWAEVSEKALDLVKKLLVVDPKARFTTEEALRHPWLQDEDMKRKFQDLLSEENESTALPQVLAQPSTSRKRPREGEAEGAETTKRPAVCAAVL
Description: as §1, §2, §3, §4

[12] = biological target: T12, PRK2 (Homo sapiens, UniProt Q16513); test: Other kinases, inhibition at 1 μM (Table 3)
T12 construct: purchased Caliper Life Sciences
Description: as §1, §2, §3, §4

[13] = biological target: T13, PAK5 (Homo sapiens, UniProt Q9P286); test: Other kinases, inhibition at 1 μM (Table 3)
T13 construct: purchased Caliper Life Sciences
T13 sequence (Q9P286 whole entry): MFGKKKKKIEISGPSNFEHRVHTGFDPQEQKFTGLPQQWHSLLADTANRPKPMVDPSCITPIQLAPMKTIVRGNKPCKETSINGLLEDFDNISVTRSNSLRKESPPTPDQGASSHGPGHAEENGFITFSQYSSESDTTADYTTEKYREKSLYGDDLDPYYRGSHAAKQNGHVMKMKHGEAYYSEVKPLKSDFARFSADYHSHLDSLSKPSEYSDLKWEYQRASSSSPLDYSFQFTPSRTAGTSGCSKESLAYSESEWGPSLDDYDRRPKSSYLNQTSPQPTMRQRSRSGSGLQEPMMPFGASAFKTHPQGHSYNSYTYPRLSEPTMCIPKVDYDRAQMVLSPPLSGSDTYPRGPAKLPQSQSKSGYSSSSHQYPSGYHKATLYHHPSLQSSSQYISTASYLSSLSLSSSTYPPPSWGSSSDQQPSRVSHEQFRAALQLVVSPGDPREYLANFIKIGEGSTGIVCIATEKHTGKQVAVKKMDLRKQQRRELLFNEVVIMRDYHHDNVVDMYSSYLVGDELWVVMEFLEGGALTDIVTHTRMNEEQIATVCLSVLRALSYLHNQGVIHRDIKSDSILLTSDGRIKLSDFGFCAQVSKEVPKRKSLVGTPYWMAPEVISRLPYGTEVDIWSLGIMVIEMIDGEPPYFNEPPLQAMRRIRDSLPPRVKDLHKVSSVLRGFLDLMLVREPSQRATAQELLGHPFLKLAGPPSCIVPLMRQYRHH
Description: as §1, §2, §3, §4

[14] = biological target: T14, PLK1 (Homo sapiens, UniProt P53350); test: Other kinases, inhibition at 1 μM (Table 3)
T14 construct: purchased Caliper Life Sciences
T14 sequence (P53350 whole entry, species assumed): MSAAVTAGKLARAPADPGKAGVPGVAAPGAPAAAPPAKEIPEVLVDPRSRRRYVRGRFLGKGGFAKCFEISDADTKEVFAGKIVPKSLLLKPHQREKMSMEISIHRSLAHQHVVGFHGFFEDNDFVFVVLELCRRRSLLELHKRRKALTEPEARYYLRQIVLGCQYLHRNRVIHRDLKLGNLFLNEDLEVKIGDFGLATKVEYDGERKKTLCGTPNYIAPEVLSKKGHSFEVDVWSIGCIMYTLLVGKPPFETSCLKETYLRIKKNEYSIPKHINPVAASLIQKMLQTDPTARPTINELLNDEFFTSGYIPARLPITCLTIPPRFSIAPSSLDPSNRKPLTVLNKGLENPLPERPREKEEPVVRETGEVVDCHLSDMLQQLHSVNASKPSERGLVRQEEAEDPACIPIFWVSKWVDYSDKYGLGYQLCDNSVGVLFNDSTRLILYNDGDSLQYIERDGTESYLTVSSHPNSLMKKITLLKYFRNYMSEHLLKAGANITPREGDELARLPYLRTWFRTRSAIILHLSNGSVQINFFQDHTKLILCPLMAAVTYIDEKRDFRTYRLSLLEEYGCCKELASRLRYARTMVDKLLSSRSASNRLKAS
Description: as §1, §2, §3, §4

[15] = biological target: T15, LCK (Homo sapiens, UniProt P06239); test: Other kinases, inhibition at 1 μM (Table 3)
T15 construct: purchased Caliper Life Sciences
Description: as §1, §2, §3, §4

[16] = biological target: T16, MSK1 (Homo sapiens, UniProt O75582); test: Other kinases, inhibition at 1 μM (Table 3)
T16 construct: purchased Caliper Life Sciences
Description: as §1, §2, §3, §4

[17] = biological target: T17, MARK3 (Homo sapiens, UniProt P27448); test: Other kinases, inhibition at 1 μM (Table 3)
T17 construct: purchased Caliper Life Sciences
Description: as §1, §2, §3, §4

[18] = test system: MAPK1; test: Other kinases, inhibition at 1 μM (Table 3)
Description: as §1, §2, §3, §4

[19] = biological target: T18, SAPK2-beta (Homo sapiens, UniProt Q15759); test: Other kinases, inhibition at 1 μM (Table 3)
T18 construct: purchased Caliper Life Sciences
T18 sequence (Q15759 whole entry): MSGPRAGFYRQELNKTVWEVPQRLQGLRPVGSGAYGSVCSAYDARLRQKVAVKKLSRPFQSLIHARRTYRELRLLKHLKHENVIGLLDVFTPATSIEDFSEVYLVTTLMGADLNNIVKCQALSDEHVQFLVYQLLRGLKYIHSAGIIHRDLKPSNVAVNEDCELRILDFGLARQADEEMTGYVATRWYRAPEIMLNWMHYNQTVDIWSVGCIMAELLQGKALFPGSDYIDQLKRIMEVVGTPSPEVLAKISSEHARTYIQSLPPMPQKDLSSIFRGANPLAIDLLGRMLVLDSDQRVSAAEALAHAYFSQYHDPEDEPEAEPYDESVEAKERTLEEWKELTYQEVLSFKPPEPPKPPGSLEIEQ
Description: as §1, §2, §3, §4

[20] = biological target: T19, CDK2/cyclin A (Homo sapiens, UniProt P24941); test: Other kinases, inhibition at 1 μM (Table 3)
T19 construct: purchased Caliper Life Sciences
Description: as §1, §2, §3, §4

[21] = test system: VEGFR; test: Other kinases, inhibition at 1 μM (Table 3)
Description: as §1, §2, §3, §4

[22] = test system: smMLCK; test: Other kinases, inhibition at 1 μM (Table 3)
Description: as §1, §2, §3, §4

[23] = biological target: T20, SAPK3 (Homo sapiens, UniProt P53778); test: Other kinases, inhibition at 1 μM (Table 3)
T20 construct: purchased Caliper Life Sciences
Description: as §1, §2, §3, §4

[24] = biological target: T21, SRC (Homo sapiens, UniProt P12931); test: Other kinases, inhibition at 1 μM (Table 3)
T21 construct: purchased Caliper Life Sciences
Description: as §1, §2, §3, §4

[25] = biological target: T22, MKK1 (Homo sapiens, UniProt Q02750); test: Other kinases, inhibition at 1 μM (Table 3)
T22 construct: purchased Caliper Life Sciences
Description: as §1, §2, §3, §4

[26] = biological target: T23, SRPK1 (Homo sapiens, UniProt Q96SB4); test: Other kinases, inhibition at 1 μM (Table 3)
T23 construct: purchased Caliper Life Sciences
T23 sequence (Q96SB4 whole entry, species assumed): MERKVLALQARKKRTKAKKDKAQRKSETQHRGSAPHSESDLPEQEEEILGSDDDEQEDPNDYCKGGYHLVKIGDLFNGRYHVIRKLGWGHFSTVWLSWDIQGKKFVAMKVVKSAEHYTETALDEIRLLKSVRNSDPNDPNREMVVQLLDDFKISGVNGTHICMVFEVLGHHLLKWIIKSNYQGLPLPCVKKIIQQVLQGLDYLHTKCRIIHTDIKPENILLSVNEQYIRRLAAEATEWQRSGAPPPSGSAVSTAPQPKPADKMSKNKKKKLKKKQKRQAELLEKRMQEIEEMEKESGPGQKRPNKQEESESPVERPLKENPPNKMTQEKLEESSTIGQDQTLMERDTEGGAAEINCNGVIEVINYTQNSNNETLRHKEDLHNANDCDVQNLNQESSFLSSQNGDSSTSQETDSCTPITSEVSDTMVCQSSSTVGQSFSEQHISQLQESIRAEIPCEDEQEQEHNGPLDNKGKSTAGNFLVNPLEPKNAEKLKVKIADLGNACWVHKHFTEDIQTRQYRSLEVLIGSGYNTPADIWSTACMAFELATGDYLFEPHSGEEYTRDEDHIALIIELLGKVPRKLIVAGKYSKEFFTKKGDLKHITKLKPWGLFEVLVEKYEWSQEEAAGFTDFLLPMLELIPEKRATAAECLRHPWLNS
Description: as §1, §2, §3, §4

[27] = biological target: T24, PIM-2 (Homo sapiens, UniProt Q9P1W9); test: Other kinases, inhibition at 1 μM (Table 3)
T24 construct: purchased Caliper Life Sciences
T24 sequence (Q9P1W9 whole entry, species assumed): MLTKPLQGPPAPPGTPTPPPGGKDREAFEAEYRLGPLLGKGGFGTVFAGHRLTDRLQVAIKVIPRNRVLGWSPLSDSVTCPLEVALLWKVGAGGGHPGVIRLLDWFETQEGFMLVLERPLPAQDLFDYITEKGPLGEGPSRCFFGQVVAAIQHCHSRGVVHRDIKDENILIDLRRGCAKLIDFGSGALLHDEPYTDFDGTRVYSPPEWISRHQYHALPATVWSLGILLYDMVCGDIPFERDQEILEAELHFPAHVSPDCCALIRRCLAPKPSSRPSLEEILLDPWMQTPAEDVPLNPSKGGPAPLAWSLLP
Description: as §1, §2, §3, §4

[28] = test system: AMPK; test: Other kinases, inhibition at 1 μM (Table 3)
Description: as §1, §2, §3, §4

[29] = biological target: T25, IRAK4(h) (Homo sapiens, UniProt Q9NWZ3); test: Inhibition of other kinases IC50 (Table 2)
T25 construct: purchased Caliper Life Sciences
T25 sequence (Q9NWZ3 1-460): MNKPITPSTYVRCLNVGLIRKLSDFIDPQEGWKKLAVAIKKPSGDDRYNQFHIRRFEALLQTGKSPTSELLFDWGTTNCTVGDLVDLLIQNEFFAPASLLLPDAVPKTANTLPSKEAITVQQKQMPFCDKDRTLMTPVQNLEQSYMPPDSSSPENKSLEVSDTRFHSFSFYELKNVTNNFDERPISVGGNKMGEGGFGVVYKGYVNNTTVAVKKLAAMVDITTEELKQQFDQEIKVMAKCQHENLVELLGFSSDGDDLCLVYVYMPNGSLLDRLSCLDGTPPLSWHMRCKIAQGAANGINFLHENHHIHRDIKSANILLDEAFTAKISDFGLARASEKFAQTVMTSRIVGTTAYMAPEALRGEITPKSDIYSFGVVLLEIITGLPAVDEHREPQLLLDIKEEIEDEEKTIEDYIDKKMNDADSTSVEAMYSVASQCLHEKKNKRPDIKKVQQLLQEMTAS
Description: as §1

Compound | inhibition at 1 µM [1] [%] | inhibition at 1 µM [2] [%] | inhibition at 1 µM [3] [%] | % inhibition PKD2 [4] [%] | % inhibition PBK [5] [%] | % inhibition CK1-delta [6] [%] | inhibition at 1 µM [7] [%] | % inhibition CAMKKb [8] [%] | % inhibition MAPKAP-K1-beta [9] [%] | % inhibition MNK-1 [10] [%] | % inhibition CHK2 [11] [%] | inhibition at 1 µM [12] [%] | % inhibition PAK5 [13] [%] | % inhibition PLK1 [14] | inhibition at 1 µM [15] [%] | % inhibition MSK1 [16] [%] | % inhibition MARK3 [17] [%] | % inhibition MAPK1 [18] [%] | inhibition at 1 µM [19] [%] | % inhibition CDK2/cyclin A [20] [%] | other results
Fc1cnc2nc1NC1CCCC(C1)OC/C=C\COc1cccc(c1)N2 (single isomer, unassigned) [Example 33, (16Z)-6-fluoro-14,19-dioxa-2,4,8,26-tetraazatetracyclo[18.3.1.1˜3,7˜0.1˜9,13˜]hexacosa-1(24),3(26),4,6,16,20,22-heptaene] | 69 | 74 | 97 | 78 | 89 | 85 | 84 | 81 | 68 | 95 | 77 | 97 | 92 | 63% and 92% | 54 | 96 | 73 | 91 | 83 | 60 | % inhibition VEGFR [21]: 49%; % inhibition smMLCK [22]: 92%; inhibition at 1 µM [23]: 87%; inhibition at 1 µM [24]: 58%; % inhibition MKK1 [25]: 71%; inhibition at 1 µM [26]: 83%; % inhibition PIM-2 [27]: 85%; % inhibition AMPK [28]: 76%
NC(=O)[C@H]1[C@H]2C[C@H]3[C@H]1Nc1nc(ncc1F)Nc1cccc(c1)CSS[C@@H]3C2 [Example 10] | 72 | 94 | 100 | 73 | 99 | 92 | 52 | 73 | 19 | 98 | 12 | 43 | 72 | 4% and 12% | 14 | 77 | 74 | 78 | 81 | 94 | % inhibition VEGFR [21]: 15%; % inhibition smMLCK [22]: 39%; inhibition at 1 µM [23]: 72%; inhibition at 1 µM [24]: 14%; % inhibition MKK1 [25]: 13%; inhibition at 1 µM [26]: 65%; % inhibition PIM-2 [27]: 70%; % inhibition AMPK [28]: 38%
NC(=O)[C@H]1[C@H]2C[C@H]3[C@H]1Nc1nc(ncc1F)Nc1cccc(c1)OCCS[C@@H]3C2 [Example 20] | – | – | – | – | – | – | – | – | – | – | – | – | – | – | – | – | – | – | – | – | IC50 [29]: 101 to 1000 nM
NC(=O)[C@H]1[C@H]2C[C@H]3[C@H]1Nc1nc(ncc1F)Nc1cccc(c1)NC(=O)CS[C@@H]3C2 [Example 27] | – | – | – | – | – | – | – | – | – | – | – | – | – | – | – | – | – | – | – | – | IC50 [29]: 1 to 100 nM
